Source: patent US20260285850A1, “SUBSTITUTED OXAZOLIDINONES AND IMIDAZOLINONES AS HERBICIDES” (FMC CORPORATION, priority 2023, published 2026)

Experiments:
Type in all cases: in vivo
[1] = test system: barnyardgrass (Echinochloa crus-galli); assay: Test A preemergence soil spray, visual injury rating 0-100; conditions: 10 days
In short: (§1)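 Scale 0–100 (no effect to complete control), visual, versus untreated controls, read 10 days after application. Application: preemergence directed spray onto seeded loam–sand soil, or postemergence to young plants; formulation in non-phytotoxic solvent with surfactant.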

[2] = test system: oat, wild (wild oat, Avena fatua); assay: as above; conditions: 10 days
In short: as §1

[3] = test system: green foxtail (Setaria viridis); assay: as above; conditions: 10 days
In short: as §1

corn (Zea mays) [4] = assay: as above; conditions: 10 days
In short: as §1

kochia (Bassia scoparia) [5] = assay: as above; conditions: 10 days
In short: as §1

[6] = test system: ryegrass, Italian (italian ryegrass, Lolium multiflorum); assay: as above; conditions: 10 days
In short: as §1

soybean (Glycine max) [7] = assay: as above; conditions: 10 days
In short: as §1

[8] = test system: blackgrass (Alopecurus myosuroides); assay: as above; conditions: 10 days
In short: as §1

[9] = test system: ragweed (common ragweed, Ambrosia artemisiifolia); assay: as above; conditions: 10 days
In short: as §1

[10] = test system: palmer (palmer amaranth, palmer pigweed, Amaranthus palmeri); assay: as above; conditions: 10 days
In short: as §1

[11] = test system: wheat (Triticum aestivum); assay: as above; conditions: 10 days
In short: as §1

[12] = test system: barnyardgrass (Echinochloa crus-galli); assay: Test A postemergence application, visual injury rating 0-100
In short: as §1

[13] = test system: oat, wild (wild oat, Avena fatua); assay: as above
In short: as §1

[14] = test system: galium (catchweed bedstraw, Galium aparine); assay: as above; conditions: Postemergence, 16 g ai/ha, greenhouse 10 days; 0 no effect, 100 complete control
In short: as §1

[15] = test system: green foxtail (Setaria viridis); assay: as above
In short: as §1

corn (Zea mays) [16] = assay: as above
In short: as §1

kochia (Bassia scoparia) [17] = assay: as above
In short: as §1

[18] = test system: ryegrass, Italian (italian ryegrass, Lolium multiflorum); assay: as above
In short: as §1

soybean (Glycine max) [19] = assay: as above
In short: as §1

[20] = test system: blackgrass (Alopecurus myosuroides); assay: as above
In short: as §1

[21] = test system: ragweed (common ragweed, Ambrosia artemisiifolia); assay: as above
In short: as §1

[22] = test system: horseweed (Erigeron canadensis); assay: as above
In short: as §1

[23] = test system: palmer (palmer amaranth, palmer pigweed, Amaranthus palmeri); assay: as above
In short: as §1

[24] = test system: wheat (Triticum aestivum); assay: as above
In short: as §1

[25] = test system: ducksalad (Heteranthera limosa); assay: Test B flooded paddy test, visual plant response rating 0-100; conditions: 250 g ai/ha, Flood, applied to paddy water, evaluated after 13 days
In short: (§2)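 Paddy-water application: test compounds went directly into water flooded 3 cm above the soil surface, with plants at 2 leaves. After a 13-day greenhouse period, responses were judged by eye relative to controls; a dash marks an untested entry.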

rice (Oryza sativa) = assay: as above; conditions: 250 g ai/ha, Flood, applied to paddy water, evaluated after 13 days
In short: as §2

[26] = test system: barnyardgrass (Echinochloa crusgalli); assay: as above; conditions: 250 g ai/ha, Flood, applied to paddy water, evaluated after 13 days
In short: as §2

[27] = test system: sedge, umbrella (small-flower umbrella sedge, Cyperus difformis); assay: as above; conditions: 250 g ai/ha, Flood, applied to paddy water, evaluated after 13 days
In short: as §2

[28] = 62 g ai/ha, 0 = no effect, 100 = complete control
[29] = 62 g ai/ha, postemergence, 10 days, 0 = no effect, 100 = complete control
[30] = Postemergence, 16 g ai/ha, greenhouse 10 days, 0 no effect, 100 complete control

With `COC(=O)C1=CCC(NC(=O)C2(C)CN(c3cc(Cl)cc(Cl)c3)C(=O)O2)C1` (stereo not drawn) [Compound 149] the “Barnyardgrass plant response rating” value ([1]; 16 g ai/ha, 0 to 100 scale) was 60, the “Barnyardgrass plant response rating (0-100)” value [1, 28] was 90 and the “Oat, Wild plant response rating” value ([2]; 16 g ai/ha, 0 to 100 scale) was 0. The “Oat, Wild plant response rating (0-100)” value [2, 28] was 20, the “Foxtail, Green plant response rating” value ([3]; 16 g ai/ha, 0 to 100 scale) was 30 and the “Foxtail, Green plant response rating (0-100)” value [3, 28] was 90. The “Corn plant response rating” value (corn (Zea mays) [4]; 16 g ai/ha, 0 to 100 scale) was 0, the “Corn plant response rating (0-100)” value (corn (Zea mays) [4]; [28]) was 30 and the “Kochia plant response rating” value (kochia (Bassia scoparia) [5]; 16 g ai/ha, 0 to 100 scale) was 0. For the same compound, the “Kochia plant response rating (0-100)” value (kochia (Bassia scoparia) [5]; [28]) was 50, the “Ryegrass, Italian plant response rating” value ([6]; 16 g ai/ha, 0 to 100 scale) was 20 and the “Ryegrass, Italian plant response rating (0-100)” value [6, 28] was 80. For the same compound, the “Soybean plant response rating” value (soybean (Glycine max) [7]; 16 g ai/ha, 0 to 100 scale) was 0, the “Soybean plant response rating (0-100)” value (soybean (Glycine max) [7]; [28]) was 0 and the “Blackgrass plant response rating” value ([8]; 16 g ai/ha, 0 to 100 scale) was 0. For the same compound, the “Blackgrass plant response rating (0-100)” value [8, 28] was 0, the “Ragweed plant response rating” value ([9]; 16 g ai/ha, 0 to 100 scale) was 0 and the “Ragweed plant response rating (0-100)” value [9, 28] was 30. For the same compound, the “Pigweed, Palmer plant response rating” value ([10]; 16 g ai/ha, 0 to 100 scale) was 90, the “Pigweed, Palmer plant response rating (0-100)” value [10, 28] was 100 and the “Wheat plant response rating” value ([11]; 16 g ai/ha, 0 to 100 scale) was 20. For the same compound, the “Wheat plant response rating (0-100)” value [11, 28] was 70, the “Barnyardgrass plant response rating (0-100)” value [12, 29] was 100 and the “Barnyardgrass plant response rating (0 to 100 scale)” value [12, 30] was 100. For the same compound, the “Oat, Wild plant response rating (0-100)” value [13, 29] was 90, the “Oat, Wild plant response rating (0 to 100 scale)” value [13, 30] was 30 and the “Galium plant response rating (0 to 100 scale)” value [14] was 60. The “Foxtail, Green plant response rating (0-100)” value [15, 29] was 90, the “Foxtail, Green plant response rating (0 to 100 scale)” value [15, 30] was 90 and the “Corn plant response rating (0-100)” value (corn (Zea mays) [16]; [29]) was 100. For the same compound, the “Corn plant response rating (0 to 100 scale)” value (corn (Zea mays) [16]; [30]) was 100, the “Kochia plant response rating (0-100)” value (kochia (Bassia scoparia) [17]; [29]) was 90 and the “Kochia plant response rating (0 to 100 scale)” value (kochia (Bassia scoparia) [17]; [30]) was 80. The “Ryegrass, Italian plant response rating (0-100)” value [18, 29] was 80, the “Ryegrass, Italian plant response rating (0 to 100 scale)” value [18, 30] was 80 and the “Soybean plant response rating (0-100)” value (soybean (Glycine max) [19]; [29]) was 90. The “Soybean plant response rating (0 to 100 scale)” value (soybean (Glycine max) [19]; [30]) was 60, the “Blackgrass plant response rating (0-100)” value [20, 29] was 90 and the “Blackgrass plant response rating (0 to 100 scale)” value [20, 30] was 90. The “Ragweed plant response rating (0-100)” value [21, 29] was 50, the “Ragweed plant response rating (0 to 100 scale)” value [21, 30] was 20 and the “Horseweed plant response rating (0-100)” value [22, 29] was 70. The “Horseweed plant response rating (0 to 100 scale)” value [22, 30] was 50, the “Pigweed, Palmer plant response rating (0-100)” value [23, 29] was 90 and the “Pigweed, Palmer plant response rating (0 to 100 scale)” value [23, 30] was 90. For the same compound, the “Wheat plant response rating (0-100)” value [24, 29] was 90, the “Wheat plant response rating (0 to 100 scale)” value [24, 30] was 80 and the “Plant response rating, Ducksalad (0 to 100 scale, 0 is no effect and 100 is complete control)” value [25] was 95. For the same compound, the “Plant response rating, Rice (0 to 100 scale, 0 is no effect and 100 is complete control)” value (rice (Oryza sativa)) was 90, the “Plant response rating, Barnyardgrass (0 to 100 scale, 0 is no effect and 100 is complete control)” value [26] was 95 and the “Plant response rating, Sedge, Umbrella (0 to 100 scale, 0 is no effect and 100 is complete control)” value [27] was 95.
